Results as given in ChEMBL document CHEMBL3639017, “Thiazolyl mGluR5 antagonists and methods for their use” (2013).

Molecular target: Metabotropic glutamate receptor 5 (Rattus norvegicus, UniProt P31424)
Assay: Binding Assay: Binding assays were performed as described in Schaffhauser H, Richards J G, Cartmell J, Chaboz S, Kemp J A, Klingelschmidt A, Messer J, Stadler H, Woltering T and Mutel V (1998) In vitro binding characteristics of a new selective group II metabotropic glutamate receptor radioligand, [3H]LY354740, in rat brain. Mol Pharmacol 53:228-233) at room temperature with slight modifications.
Format: tissue-based

Chain of Metabotropic glutamate receptor 5 (P31424 whole entry): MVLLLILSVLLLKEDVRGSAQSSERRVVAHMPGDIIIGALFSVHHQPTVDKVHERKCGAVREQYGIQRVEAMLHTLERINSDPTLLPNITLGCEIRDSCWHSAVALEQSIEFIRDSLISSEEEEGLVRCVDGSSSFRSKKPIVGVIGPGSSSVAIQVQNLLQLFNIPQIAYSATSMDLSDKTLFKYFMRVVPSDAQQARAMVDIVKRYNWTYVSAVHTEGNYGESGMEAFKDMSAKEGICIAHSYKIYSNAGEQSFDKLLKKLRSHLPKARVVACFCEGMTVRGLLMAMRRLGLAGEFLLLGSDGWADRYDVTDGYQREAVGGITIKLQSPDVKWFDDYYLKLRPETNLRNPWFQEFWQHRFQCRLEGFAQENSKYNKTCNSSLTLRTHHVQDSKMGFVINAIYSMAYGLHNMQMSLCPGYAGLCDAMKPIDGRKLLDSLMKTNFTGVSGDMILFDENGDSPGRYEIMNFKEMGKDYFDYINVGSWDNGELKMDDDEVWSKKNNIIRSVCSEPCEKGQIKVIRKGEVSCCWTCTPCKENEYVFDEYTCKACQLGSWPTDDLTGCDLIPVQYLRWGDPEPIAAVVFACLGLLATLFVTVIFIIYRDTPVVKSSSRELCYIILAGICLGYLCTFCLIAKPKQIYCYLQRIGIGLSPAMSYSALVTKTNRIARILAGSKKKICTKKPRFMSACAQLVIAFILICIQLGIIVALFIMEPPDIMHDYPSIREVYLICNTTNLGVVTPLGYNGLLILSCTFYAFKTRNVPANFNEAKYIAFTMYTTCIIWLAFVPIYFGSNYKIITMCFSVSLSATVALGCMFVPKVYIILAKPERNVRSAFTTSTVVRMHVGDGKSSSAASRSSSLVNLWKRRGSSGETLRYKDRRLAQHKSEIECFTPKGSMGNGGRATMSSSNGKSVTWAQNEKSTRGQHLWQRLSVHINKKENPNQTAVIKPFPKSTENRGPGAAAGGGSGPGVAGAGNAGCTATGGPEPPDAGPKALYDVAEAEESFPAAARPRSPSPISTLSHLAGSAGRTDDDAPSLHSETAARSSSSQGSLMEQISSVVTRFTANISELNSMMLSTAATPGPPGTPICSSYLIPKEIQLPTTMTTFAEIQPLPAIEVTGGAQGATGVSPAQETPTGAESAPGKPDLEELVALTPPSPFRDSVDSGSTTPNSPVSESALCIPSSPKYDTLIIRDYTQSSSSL

Ki: 2.6 nM
Structure (SMILES): Cc1nc(C#Cc2ccc(-c3ccccc3C#N)nc2)cs1
